Laboratory results published in PubChem BioAssay (NCI).
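Method: 48-hour compound exposure of cells in 96-well plates, five concentrations, linear interpolation of endpoints. The concentration for 50% growth inhibition is given as GI50. TGI denotes the concentration required for complete inhibition of growth.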

Key:
Assay in all cases: inhibition of tumour cell growth, NCI panel, 48 h
[1] = test system: HOP-92 NSCLC
[2] = test system: MOLT-4 leukemia
[3] = test system: CCRF-CEM leukemia
[4] = test system: CAKI-1 renal
[5] = test system: HCT-15 colon
[6] = test system: SN12C renal
[7] = test system: SK-MEL-2 melanoma
[8] = test system: SW-620 colon
[9] = test system: M14 melanoma
[10] = test system: UACC-257 melanoma

| SMILES | GI50 [1] | TGI [1] | GI50 [2] | TGI [2] | GI50 [3] | TGI [3] | GI50 [4] | TGI [4] | GI50 [5] | TGI [5] | GI50 [6] | TGI [6] | GI50 [7] | TGI [7] | GI50 [8] | TGI [8] | GI50 [9] | TGI [9] | GI50 [10] | TGI [10] |
| --- | --- | --- | --- | --- | --- | --- | --- | --- | --- | --- | --- | --- | --- | --- | --- | --- | --- | --- | --- | --- |
| CC[As](CC)SC[C@H](C)C(=O)N1CCC[C@H]1C(=O)O | 0.0177 µM | 0.0933 µM | 0.016 µM | 0.0586 µM | 0.017 µM | 0.0573 µM | < 0.0181 µM | 0.0648 µM | 0.027 µM | 0.194 µM | 0.0637 µM | 0.218 µM | 0.522 µM | 1.77 µM | 0.0344 µM | 0.11 µM | 0.0257 µM | 0.0895 µM | 0.282 µM | 1.48 µM |
| C/C=C(\C)C(=O)O[C@H]1C=CC(=O)O[C@H]1CCC(=O)[C@H](C)O | 14.3 µM | 28.3 µM | 17.6 µM | 41.8 µM | 0.014 µM | 9.1 µM | 7.16 µM | 17.3 µM | 11.6 µM | 27.1 µM | 18.5 µM | 46.9 µM | 19.1 µM | 47.3 µM | 4.9 µM | 16.2 µM | 14.6 µM | 32.8 µM | 22.6 µM | > 57 µM |
| COc1cccc(C2CC(C)(O)Oc3cc4c(cc32)OCO4)c1O (stereo not drawn) | – | 92.5 µM | – | > 94.3 µM | – | > 95.9 µM | – | > 100 µM | – | > 72.5 µM | – | 89.2 µM | – | > 80.4 µM | – | > 100 µM | – | > 65.8 µM | – | > 100 µM |
| CC(=O)N=C1N(/C=C2\C(=O)Oc3ccccc3C2=O)C(=O)/C(=C/c2cccc(Cl)c2Cl)N1C | – | 9.38 µM | – | > 100 µM | – | > 100 µM | – | 65.8 µM | – | 32.5 µM | – | > 100 µM | – | 60.4 µM | – | > 100 µM | – | 34.4 µM | – | > 100 µM |
| Oc1ccc(Nc2ncnc3c2sc2ncccc23)cc1 | 0.08 µM | 11.6 µM | 0.0527 µM | > 45.5 µM | 0.0307 µM | > 100 µM | < 0.0185 µM | 9.21 µM | 0.088 µM | > 100 µM | 0.244 µM | > 100 µM | 27.3 µM | > 100 µM | 0.0824 µM | > 100 µM | 0.012 µM | 0.0551 µM | 0.0726 µM | > 100 µM |
| COc1ccc(OC)c2c1[nH]c(=O)c1c3ccccc3cn21 | 1.5 µM | 3.31 µM | 0.581 µM | 2.3 µM | 1.17 µM | 3.81 µM | 1.09 µM | 2.39 µM | 0.693 µM | 2.42 µM | 1.23 µM | 2.58 µM | 2 µM | 4.01 µM | 0.59 µM | 2.11 µM | 1.79 µM | 3.37 µM | 2 µM | 3.73 µM |
| CC1(C)COC(C2(C)C(=O)C=C(c3ccccc3)c3ccccc32)=N1 (stereo not drawn) | – | > 100 µM | – | > 100 µM | – | > 100 µM | – | > 100 µM | – | > 100 µM | – | > 100 µM | – | > 100 µM | – | > 100 µM | – | > 100 µM | – | > 100 µM |
| CCCCC#CC1=C(Br)C(=O)OC1 | 2.04 µM | 18.7 µM | 0.319 µM | > 100 µM | 0.261 µM | – | 1.26 µM | 4.63 µM | 1.02 µM | – | 1.58 µM | 4.27 µM | 3.12 µM | 15.2 µM | 0.0237 µM | 0.21 µM | 1.26 µM | 3.71 µM | 2.2 µM | 5.67 µM |
| COc1ccc(C2SC(N)=Nc3c2c(C)nn3C(=O)c2ccncc2)cc1OC (stereo not drawn) | – | > 10 µM | – | > 10 µM | – | > 10 µM | – | > 10 µM | – | > 10 µM | – | > 10 µM | – | > 10 µM | – | > 10 µM | – | > 10 µM | – | > 10 µM |
| O=C(CCN(C(=O)O)S(=O)(=O)c1ccc(NC(=O)c2ccccc2)cc1)Nc1ccccc1 | – | > 100 µM | – | > 85.3 µM | – | > 81.2 µM | – | > 100 µM | – | > 75.2 µM | – | > 100 µM | – | > 100 µM | – | > 68 µM | – | > 100 µM | – | > 86.3 µM |
| CO/N=C(/C)c1cccc(Nc2cc(-n3nnc4ccccc43)nc3ccccc23)c1 | 3.98 µM | 37.4 µM | 7.18 µM | > 100 µM | 20.7 µM | > 100 µM | 22.5 µM | > 100 µM | 31.8 µM | > 100 µM | 32.8 µM | > 100 µM | > 100 µM | > 100 µM | 34.1 µM | > 100 µM | 37.4 µM | > 100 µM | 87.5 µM | > 100 µM |
| C/C=C/C(CC(O)(C(F)(F)F)C(F)(F)F)=N/NC(N)=S | – | > 10 µM | – | > 10 µM | – | > 10 µM | – | > 10 µM | – | > 10 µM | – | > 10 µM | – | > 10 µM | – | > 10 µM | – | > 10 µM | – | > 10 µM |
| CC1(C)N=C(N)N=C(N)N1c1ccc(CCCCc2ccc(Cl)cc2S(=O)(=O)F)c(Cl)c1 | 1.32 µM | 12.6 µM | 0.436 µM | 15.5 µM | 0.372 µM | 8.16 µM | 2.04 µM | 18.2 µM | 0.464 µM | > 51.3 µM | 0.34 µM | 14.7 µM | 3.07 µM | 25.1 µM | 0.234 µM | 14.1 µM | 0.421 µM | 17.8 µM | 0.808 µM | 17 µM |
| COc1cc(OCc2cccc(-c3ccc(C(O)c4nccs4)cc3)c2C)cc(OC)c1C=O (stereo not drawn) | 2.19 µM | 8.52 µM | 1.9 µM | 5.88 µM | 2.33 µM | 19.9 µM | 0.182 µM | 3.3 µM | 1.79 µM | 4.4 µM | 1.98 µM | 7.07 µM | 2.58 µM | 8.53 µM | 3.2 µM | 12.7 µM | 2.55 µM | 7.61 µM | 0.842 µM | 5.11 µM |
| c1ccc2cc(-c3cc4ccccc4s3)ccc2c1 | – | > 100 µM | – | > 100 µM | – | > 100 µM | – | > 100 µM | – | > 100 µM | – | > 100 µM | – | > 100 µM | – | > 100 µM | – | > 100 µM | – | > 100 µM |
